Assay results published in patent publication US20220274997A1, “PIM KINASE INHIBITOR COMPOSITIONS AND USES THEREOF” (Snap Bio, Inc., priority 2019, published 2022).
pEC50, pIC50: −log10 of the molar value.

How the values were obtained:
HepG2 = assay: CellTiter-Glo cancer cell growth inhibition, HepG2; type: cell-based, human; details: Homo sapiens, HepG2, 72 h
Excerpt: (§1) The CellTiter-Glo® Luminescent Cell Viability Assay is a sensitive homogeneous method to determine the number of viable cells in culture, Detection is based on using the luciferase reaction to measure the amount of ATP from viable cells. The amount of ATP in cells correlates with cell viability. Within minutes after a loss of membrane integrity, cells lose the ability to synthesize ATP, and endogenous ATPases destroy any remaining ATP; thus the levels of ATP fall precipitously. The CellTiter-Glo® Reagent does three things upon addition to cells. It lyses cell membranes to release ATP; it inhibits endogenous ATPases, and it provides luciferin, luciferase and other reagents necessary to measure ATP using a bioluminescent reaction. The unique properties of a proprietary stable luciferase.
(§2) All assays were performed by Reaction Biology Corporation (Malvern, Pa.) or ChemDiv, Inc. (San Diego, Calif.). All cell lines were purchased from American Type Culture Collection (ATCC, Manassas, Va.), except Huh 7 (RIKEN, Toyo, Japan) and HepaRG (Life Technologies, Carlsbad, Calif.).
(§3) Stock solutions ([…]) were diluted with cell culture media to produce 500× serial dilutions and […] of final compound dilutions were added to cells in assay plates to screen a series of 10 doses starting at […]. Final DMSO concentration was 0.2%. Assay plates are centrifuged at 100 rpm, 1 minute and kept at 37° C., 5% CO2, humidified atmosphere. […] Luminescence intensity was measured for each well using the Tecan M 1000 microplate reader after 5 min of incubation with CellTiter-Glo Reagent. The number of viable cells in culture was determined based on quantitation of the ATP present in each culture well. […] The EC50 curves were plotted and […] values were calculated using the GraphPad Prism 4 program based on a sigmoidal dose-response equation.

PIM3 = target: T1, PIM3 (Homo sapiens, UniProt Q86V86); assay: LANCE Ultra kinase assay, PIM3; type: biochemical; details: LANCE assay
T1 construct: purchased SignalChem, Richmond, Canada P37-10BG
Excerpt: (§4) The second assay used was Perkin Elmer's LANCE® Ultra kinase assay which uses a ULight™-labeled peptide substrate and an appropriate Europium-labeled anti-phospho antibody. When the substrate becomes phosphorylated by a kinase of interest, the phosphorylated site on the substrate is recognized by the Europium-labeled anti-phospho antibody. […] The intensity of light emission is proportional to the level of ULight peptide phosphorylation. A kinase inhibitor reduces the FRET signal, thus providing an accurate and sensitive measure of inhibition potency.
(§5) The assay was performed in 384-well plates in two steps: PIM kinases were mixed with the ULight-substrate (CREBtide) in buffer and incubated for 10 min. Subsequently, ATP and molecules of the present disclosure were added in a kinase buffer at the appropriate concentration and the reactions were incubated for 1 hour, at room temperature in the dark. • After 1 h EDTA was added to stop the kinase reaction, Eu-W1024-labeled anti-phosphoserine-CREB (Ser133) Antibody (anti-phosphoCREBtide specific antibody) was added to the reaction in LANCE Detection buffer. The mixture was allowed to incubate for 30 min to allow binding of the antibody to the phosphorylated site before the plate was read using a Tecan microplate reader
(§6) Kinase Assay Buffer—50 mM HEPES pH7.0.1 mM EGTA, 10 mM MgCl2, 0.01% BRU-35.
(§7) The inhibitory activity of each compound against PIM kinases was measured with the LANCE® Ultra Kinase Assays by ChemDiv, Inc. (San Diego, Calif.).

PIM2 = target: T2, PIM2 (Homo sapiens, UniProt Q9P1W9); assay: LANCE Ultra kinase assay, PIM2; type: biochemical
T2 construct: purchased ProQinase, Freiburg, Germany 0223-0000-1
Excerpt: as §4, §5, §6, §7

DU-145 = assay: CellTiter-Glo cancer cell growth inhibition, DU-145; type: cell-based; details: Homo sapiens, DU-145, 72 h
Excerpt: as §1, with “luciferase. There is a linear relationship (r2=0.99) between the luminescent signal and the number of cells from 0 to 50.000 cells per well.” for “luciferase.”
All assays were performed by Reaction Biology Corporation (Malvern, Pa.) or ChemDiv, Inc. (San Diego, Calif.). […]
Conditions: 37° C., air 95%; HEPA-filtered carbon dioxide (CO2) 5%, humidified atmosphere. • Cells were grown in 175 cm^2 flasks to 80-90% of confluency. • Culture media was aspirated and cell layer was briefly rinsed with Versen solution to remove all traces of serum. • 2 mL of accutase was added to cells. • Flasks were retuned to incubator for 5 min to allow cell detachment. • Add 6.0 mL of complete growth medium. • Single cell suspension was created by gently pipetting. • Cells were counted using a Hematocytometer and a suspension with the desired cell concentration was prepared. […]
Stock solutions ([…]) were diluted with cell culture media to produce 500× serial dilutions and […] of final compound dilutions were added to cells in assay plates to screen a series of 10 doses starting at 100 mM. […] Luminescence intensity was measured for each well using the Tecan M 1000 microplate reader after 5 min of incubation with CellTiter-Glo Reagent. The number of viable cells in culture was determined based on quantitation of the ATP present in each culture well. […]

HepaRG = assay: CellTiter-Glo cancer cell growth inhibition, HepaRG; type: cell-based; details: Homo sapiens, 72 h
Excerpt: as §1, §2, §3

T2 sequence (Q9P1W9 whole entry): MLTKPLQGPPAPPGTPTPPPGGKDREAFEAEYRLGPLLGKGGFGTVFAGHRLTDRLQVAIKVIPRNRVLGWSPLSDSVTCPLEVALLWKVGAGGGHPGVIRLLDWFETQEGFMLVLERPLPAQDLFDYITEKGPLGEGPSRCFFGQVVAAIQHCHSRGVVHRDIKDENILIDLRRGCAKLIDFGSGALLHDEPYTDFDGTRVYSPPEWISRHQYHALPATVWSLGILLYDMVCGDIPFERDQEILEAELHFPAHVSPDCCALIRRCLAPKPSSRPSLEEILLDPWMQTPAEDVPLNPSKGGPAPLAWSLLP

Row | pEC50 (HepG2) | pIC50 (PIM3; ATP 1 mM) | pIC50 (PIM2; ATP 1 mM) | pEC50 (DU-145) | pEC50 (HepaRG) | pIC50 (PIM3; ATP 0.1 mM) | pIC50 (PIM2; ATP 0.1 mM) | Structure (SMILES)
1 | 7.12 | 8.02 | 7.39 | 7.39 |  |  |  | O=C1NC(=O)c2c1c1c3cc(F)c(O)cc3[nH]c1c1c2c2ccccc2n1CCN1CCOCC1 [Compound 18, 3-fluoro-2-hydroxy-12-(2-morpholin-4-ylethyl)-12,13-dihydro-5H-indolo[2,3-a]pyrrolo[3,4-c]carbazole-5,7(6H)-dione]
2 | 7.47 | 8.37 | 8.31 | 7.40 | 7.32 | 9.00 | 8.49 | O=C1NC(=O)c2c1c1c3ccccc3[nH]c1c1c2c2cc(F)c(O)cc2n1CCN1CCOCC1 [Compound 19, 3-fluoro-2-hydroxy-13-(2-morpholin-4-ylethyl)-12,13-dihydro-5H-indolo[2,3-a]pyrrolo[3,4-c]carbazole-5,7(6H)-dione]
